Like-named read-outs stand apart in the source and are kept apart here.
Target: T1, SIRT1 (Homo sapiens, UniProt Q96EB6)
T1 sequence (Q96EB6 1-747): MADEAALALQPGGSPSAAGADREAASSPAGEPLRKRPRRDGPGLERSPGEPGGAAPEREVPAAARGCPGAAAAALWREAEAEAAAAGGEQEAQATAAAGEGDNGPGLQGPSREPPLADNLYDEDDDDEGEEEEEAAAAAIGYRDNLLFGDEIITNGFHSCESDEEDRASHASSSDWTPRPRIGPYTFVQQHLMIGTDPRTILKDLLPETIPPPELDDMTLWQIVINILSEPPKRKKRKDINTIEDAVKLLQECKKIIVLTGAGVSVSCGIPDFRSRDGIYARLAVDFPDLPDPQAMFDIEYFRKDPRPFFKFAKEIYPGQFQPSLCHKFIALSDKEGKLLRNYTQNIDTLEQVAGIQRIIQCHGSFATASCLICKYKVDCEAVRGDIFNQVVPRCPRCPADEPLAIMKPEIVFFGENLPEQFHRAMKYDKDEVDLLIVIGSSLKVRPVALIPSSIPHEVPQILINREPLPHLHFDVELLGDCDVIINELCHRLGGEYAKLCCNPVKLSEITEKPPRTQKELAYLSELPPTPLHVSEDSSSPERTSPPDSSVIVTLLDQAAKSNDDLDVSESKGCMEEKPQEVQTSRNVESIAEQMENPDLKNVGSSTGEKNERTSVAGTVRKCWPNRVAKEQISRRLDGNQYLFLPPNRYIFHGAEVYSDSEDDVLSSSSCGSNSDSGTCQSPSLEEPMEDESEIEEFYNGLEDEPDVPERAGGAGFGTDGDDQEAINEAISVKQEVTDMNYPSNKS
Test: Mass spectrometry based SIRT1 deacetylase activation assay (acetylated p53-derived peptide substrate)
Assay type: biochemical

[1] = 0.5 μM peptide substrate, 120 μM βNAD+, 10 nM SIRT1, 25 minutes at 25° C.
[2] = 0.5 μM peptide substrate, 120 μM βNAD+, 10 nM SIRT1, 25 min at 25° C.
[3] = 0.5 μM peptide substrate, 120 μM βNAD+, 10 nM SIRT1, 25 min at 25° C., read-out: EC1.5

Compound	EC1.5 [1]	Fold Act. (percent maximum fold activation) [1]	Fold Act. (percent maximum fold activation) [2]	EC1.5 [3]	also measured
O=C(Nc1cccc2[nH]c(-c3ccccc3C(F)(F)F)nc12)c1cnccn1 [Compound 366]					EC1.5: B (EC1.5 1-25 uM); Fold Act. (percent maximum fold activation): A (Fold activation >200%)
Cc1nc(C)c(-c2nc3c(C(=O)Nc4cccnc4)cccc3[nH]2)s1 [Compound 319]					EC1.5: A (EC1.5<1.0 uM); Fold Act. (percent maximum fold activation): A (Fold activation >200%)
O=C(Nc1nccs1)c1cccc2[nH]c(-c3ccccc3OCCN3CC[C@@H](F)C3)nc12 [Compound 507]			B (Fold Activation <200%)	1000 to 25000 nM	
O=C(Nc1ccccn1)c1cccc2[nH]c(-c3ccc(OC4CCNCC4)cc3)nc12 [Compound 535]			A (Fold activation >200%)	< 1000 nM	
O=C(NC1CCOC1=O)c1cccc2[nH]c(-c3cccc(C(F)(F)F)c3)nc12 (stereo not shown) [Compound 273]					EC1.5: B (EC1.5 1-25 uM); Fold Act. (percent maximum fold activation): A (Fold activation >200%)
O=C(Nc1nccs1)c1cccc2[nH]c(-c3ccccc3OCC(O)CO)nc12 (stereo not shown) [Compound 326]					EC1.5: B (EC1.5 1-25 uM); Fold Act. (percent maximum fold activation): A (Fold activation >200%)
O=C(Nc1ccccn1)c1cccc2[nH]c(-c3ccccc3C(F)(F)F)nc12 [Compound 248]					EC1.5: B (EC1.5 1-25 uM); Fold Act. (percent maximum fold activation): A (Fold activation >200%)
FC(F)(F)c1cccc(-c2nc3c(Nc4ccccn4)cccc3[nH]2)c1 [Compound 581, N-(pyridin-2-yl)-2-(3-(trifluoromethyl)phenyl)-1H-benzo[d]imidazol-4-amine]			B (Fold Activation <200%)	> 25000 nM	
O=C(Nc1nccs1)c1cccc2[nH]c(-c3ccccc3OCCN3CCNCC3)nc12 [Compound 483]			A (Fold activation >200%)	1000 to 25000 nM	
O=C(Nc1nccs1)c1cccc2[nH]c(-c3cccc(N4CCCCC4)c3)nc12 [Compound 225]					EC1.5: B (EC1.5 1-25 uM); Fold Act. (percent maximum fold activation): A (Fold activation >200%)
O=C(Nc1ccccn1)c1cccc2[nH]c(-c3ccccc3OCCN3CC[C@H](F)C3)nc12 [Compound 510]			B (Fold Activation <200%)	1000 to 25000 nM	
O=C(Nc1cccnc1)c1cccc2[nH]c(-c3cccc4c3OC(F)(F)O4)nc12 [Compound 531]			A (Fold activation >200%)	< 1000 nM	
Cc1nc(N2CCOCC2)sc1-c1nc2c(C(=O)Nc3cccnc3)cccc2[nH]1 [Compound 413]			A (Fold activation >200%)	< 1000 nM	
O=C(Nc1cccc2[nH]c(-c3cccc(N4CCOCC4)c3)nc12)c1ccccn1 [Compound 367]					EC1.5: B (EC1.5 1-25 uM); Fold Act. (percent maximum fold activation): A (Fold activation >200%)
O=C(Nc1nccs1)c1cccc2[nH]c(-c3ccc(N4CCCC4)cc3C(F)(F)F)nc12 [Compound 572]			A (Fold activation >200%)	1000 to 25000 nM	
O=C(Nc1nccs1)c1cccc2[nH]c(-c3cccc(OCCN4CCOCC4)c3)nc12 [Compound 347]					EC1.5: B (EC1.5 1-25 uM); Fold Act. (percent maximum fold activation): A (Fold activation >200%)
Cc1cc(NC(=O)c2cccc3[nH]c(-c4ccnn4-c4ccccc4)nc23)n(C)n1 [Compound 423]			A (Fold activation >200%)	1000 to 25000 nM	
O=C(Nc1cccc2[nH]c(-c3ccccc3C(F)(F)F)nc12)c1ccccn1 [Compound 364]					EC1.5: B (EC1.5 1-25 uM); Fold Act. (percent maximum fold activation): A (Fold activation >200%)
O=C(Nc1cccnc1)c1cccc2[nH]c(-c3cccc(N4CCOCC4)n3)nc12 [Compound 389]					EC1.5: B (EC1.5 1-25 uM); Fold Act. (percent maximum fold activation): A (Fold activation >200%)
O=C(Nc1nccs1)c1cccc2[nH]c(-c3ccccc3-c3ccccc3)nc12 [Compound 255]					EC1.5: B (EC1.5 1-25 uM); Fold Act. (percent maximum fold activation): A (Fold activation >200%)
O=C(Nc1nccs1)c1cccc2[nH]c(-c3ccccc3OCCN3CCCC3)nc12 [Compound 482, 2-(2-(2-(pyrrolidin-1-yl)ethoxy)phenyl)-N-(thiazol-2-yl)-1H-benzo[d]imidazole-4-carboxamide]			A (Fold activation >200%)	1000 to 25000 nM	
O=C(Nc1ccccn1)c1cccc2[nH]c(-c3cc(F)ccc3OCCN3CCOCC3)nc12 [Compound 584]			A (Fold activation >200%)	1000 to 25000 nM	
O=C(Nc1ccccn1)c1cccc2[nH]c(-c3cc(F)ccc3C(F)F)nc12 [Compound 513]			A (Fold activation >200%)	< 1000 nM	

More lines, main results first:

EC1.5 [1]	Fold Act. (percent maximum fold activation) [1]	Fold Act. (percent maximum fold activation) [2]	EC1.5 [3]	Compound	also measured
A (EC1.5<1.0 uM)	A (Fold activation >200%)			O=C(Nc1nc(CN2CCOCC2)cs1)c1cccc2[nH]c(-c3cc(F)ccc3C(F)(F)F)nc12 [Compound 701]	
A (EC1.5<1.0 uM)	A (Fold activation >200%)			O=C(Nc1cccnn1)c1cc(N2CCOCC2)cc2[nH]c(-c3ccc(F)cc3C(F)(F)F)nc12 [Compound 692]	
A (EC1.5<1.0 uM)	A (Fold activation >200%)			O=C(Nc1nccs1)c1cncc2[nH]c(-c3ccc(N4CCOCC4)cc3C(F)F)nc12 [Compound 804]	
A (EC1.5<1.0 uM)	A (Fold activation >200%)			O=C(Nc1cccc(OC[C@@H](O)CO)c1)c1cncc2[nH]c(-c3ccccc3C(F)(F)F)nc12 [Compound 747]	
A (EC1.5<1.0 uM)	A (Fold activation >200%)			Cc1cc(-c2nc3c(C(=O)Nc4nc(CN5CCOCC5)cs4)cccc3[nH]2)ccn1 [Compound 844]	
A (EC1.5<1.0 uM)	A (Fold activation >200%)			O=C(Nc1ccccn1)c1cc(N2CCOCC2)cc2[nH]c(-c3ccc(F)cc3C(F)(F)F)nc12 [Compound 690]	
A (EC1.5<1.0 uM)	A (Fold activation >200%)			O=C(Nc1ccccn1)c1cccc2[nH]c(-c3ccc(N4CC[C@H](F)C4)cc3C(F)(F)F)nc12 [Compound 607]	
A (EC1.5<1.0 uM)	A (Fold activation >200%)			O=C(Nc1cccc(OCC(O)CO)c1)c1cccc2[nH]c(-c3ccc(Cl)cc3C(F)(F)F)nc12 (stereo not shown) [Compound 678]	
A (EC1.5<1.0 uM)	A (Fold activation >200%)			O=C(Nc1ccccn1)c1cc(N2CCOCC2)cc2[nH]c(-c3ccc(Cl)cc3C(F)(F)F)nc12 [Compound 641]	
		A (Fold activation >200%)	< 1000 nM	Cc1nc(NC(=O)c2cccc3[nH]c(-c4ccc(N5CCOCC5)cc4C(F)(F)F)nc23)sc1C [Compound 589]	
B (EC1.5 1-25 uM)	A (Fold activation >200%)			O=C(Nc1ccccc1OCC(O)CO)c1cccc2[nH]c(-c3ccc(F)cc3C(F)(F)F)nc12 (stereo not shown) [Compound 727]	
A (EC1.5<1.0 uM)	A (Fold activation >200%)			O=C(Nc1ccc(CN2CCCC2)cc1)c1cccc2[nH]c(-c3ccc(CN4CCCC4)cc3C(F)(F)F)nc12 [Compound 869, 2-(4-(pyrrolidin-1-ylmethyl)-2-(trifluoromethyl)phenyl)-N-(4-(pyrrolidin-1-ylmethyl)phenyl)-1H-benzo[d]imidazole-4-carboxamide]	
A (EC1.5<1.0 uM)	A (Fold activation >200%)			O=C(Nc1cccc(OCC(O)CO)c1)c1cccc2[nH]c(-c3ccc(F)cc3C(F)(F)F)nc12 (stereo not shown) [Compound 679]	
A (EC1.5<1.0 uM)	A (Fold activation >200%)			O=C(Nc1ccccc1)c1cccc2[nH]c(-c3cc(F)ccc3C(F)(F)F)nc12 [Compound 756]	
A (EC1.5<1.0 uM)	A (Fold activation >200%)			O=C(Nc1cccnc1)c1cc(N2CCOCC2)cc2[nH]c(-c3cc(F)ccc3C(F)(F)F)nc12 [Compound 646]	
B (EC1.5 1-25 uM)	A (Fold activation >200%)			O=C(Nc1ccc(CN2CCOCC2)cn1)c1cccc2[nH]c(-c3cc(F)ccc3C(F)(F)F)nc12 [Compound 624, 2-(5-fluoro-2-(trifluoromethyl)phenyl)-N-(5-(morpholinomethyl)pyridin-2-yl)-1H-benzo[d]imidazole-4-carboxamide]	
B (EC1.5 1-25 uM)	A (Fold activation >200%)			O=C(Nc1nccs1)c1cncc2[nH]c(-c3cc(F)ccc3C(F)(F)F)nc12 [Compound 653]	
C (EC1.5 >25 uM)	B (Fold Activation <200%)			O=C(Nc1ccccn1)c1cccc2[nH]c(-c3cc(N4CCCC4)ccc3C(F)(F)F)nc12 [Compound 688]	

Reference: patent publication US8846947B2, “Benzimidazoles and related analogs as sirtuin modulators” (GlaxoSmithKline LLC, priority 2008, dated 2014)
